Columns and labels:
[1] = molecular target: T1, NUAK family SNF1-like kinase 2 (Homo sapiens) (UniProt Q9H093); test: Inhibition of human recombinant NuaK2 at 500 nM related to control ULK1
T1 sequence (whole entry): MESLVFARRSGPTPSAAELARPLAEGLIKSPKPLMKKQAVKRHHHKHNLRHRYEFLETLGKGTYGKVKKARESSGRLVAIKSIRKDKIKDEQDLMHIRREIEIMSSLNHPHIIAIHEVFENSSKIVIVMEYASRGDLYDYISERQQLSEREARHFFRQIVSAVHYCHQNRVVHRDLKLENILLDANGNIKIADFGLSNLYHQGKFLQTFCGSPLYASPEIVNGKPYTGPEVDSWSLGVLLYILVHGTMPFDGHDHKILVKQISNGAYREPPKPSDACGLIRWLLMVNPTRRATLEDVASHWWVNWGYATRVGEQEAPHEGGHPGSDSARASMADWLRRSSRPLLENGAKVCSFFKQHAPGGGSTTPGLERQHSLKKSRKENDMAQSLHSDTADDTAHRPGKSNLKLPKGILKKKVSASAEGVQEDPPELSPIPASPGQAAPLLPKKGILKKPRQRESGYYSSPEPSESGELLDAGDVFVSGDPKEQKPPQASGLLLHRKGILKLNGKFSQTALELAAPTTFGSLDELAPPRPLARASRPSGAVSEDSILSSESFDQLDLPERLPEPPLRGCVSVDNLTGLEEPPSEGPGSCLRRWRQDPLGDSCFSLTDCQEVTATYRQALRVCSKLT

[2] = molecular target: Calcium/calmodulin-dependent protein kinase type 1B (Homo sapiens) (UniProt Q6P2M8); test: Inhibition of human recombinant CaMK1b at 500 nM related to control ULK1
Sequence of Calcium/calmodulin-dependent protein kinase type 1B (Homo sapiens) (Q6P2M8 whole entry): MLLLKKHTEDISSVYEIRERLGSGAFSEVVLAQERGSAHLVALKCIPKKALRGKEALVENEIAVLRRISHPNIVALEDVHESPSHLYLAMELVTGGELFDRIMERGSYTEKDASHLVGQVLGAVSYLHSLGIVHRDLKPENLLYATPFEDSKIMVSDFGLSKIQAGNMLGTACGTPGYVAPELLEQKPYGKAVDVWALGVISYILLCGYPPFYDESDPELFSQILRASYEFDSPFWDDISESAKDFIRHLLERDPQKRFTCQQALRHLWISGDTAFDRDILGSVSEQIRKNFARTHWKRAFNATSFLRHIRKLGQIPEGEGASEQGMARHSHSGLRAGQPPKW

[3] = molecular target: Proto-oncogene tyrosine-protein kinase Src (Homo sapiens) (UniProt P12931); test: Inhibition of human recombinant SRC at 500 nM related to control ULK1
Sequence of Proto-oncogene tyrosine-protein kinase Src (Homo sapiens) (P12931 2-536 limits assumed): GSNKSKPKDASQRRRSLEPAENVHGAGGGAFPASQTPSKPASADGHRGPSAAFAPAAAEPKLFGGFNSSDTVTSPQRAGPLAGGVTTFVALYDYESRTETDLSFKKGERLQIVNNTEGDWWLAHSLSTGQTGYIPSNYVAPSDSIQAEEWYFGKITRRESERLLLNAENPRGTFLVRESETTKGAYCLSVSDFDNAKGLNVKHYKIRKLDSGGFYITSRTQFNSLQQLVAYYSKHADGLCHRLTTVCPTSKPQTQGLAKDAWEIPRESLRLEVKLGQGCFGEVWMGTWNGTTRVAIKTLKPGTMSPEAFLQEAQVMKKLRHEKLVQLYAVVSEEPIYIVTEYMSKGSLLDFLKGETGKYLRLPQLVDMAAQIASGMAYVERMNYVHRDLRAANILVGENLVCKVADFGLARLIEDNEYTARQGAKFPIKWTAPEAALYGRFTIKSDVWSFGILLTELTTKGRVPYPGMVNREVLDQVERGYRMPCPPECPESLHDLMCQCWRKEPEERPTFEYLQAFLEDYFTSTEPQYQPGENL

[4] = molecular target: Serine/threonine-protein kinase PLK1 (Homo sapiens) (UniProt P53350); test: Inhibition of human recombinant PLK1 at 15 nM in presence of ATP by radiometric assay relative to control
Sequence of Serine/threonine-protein kinase PLK1 (Homo sapiens) (P53350 whole entry): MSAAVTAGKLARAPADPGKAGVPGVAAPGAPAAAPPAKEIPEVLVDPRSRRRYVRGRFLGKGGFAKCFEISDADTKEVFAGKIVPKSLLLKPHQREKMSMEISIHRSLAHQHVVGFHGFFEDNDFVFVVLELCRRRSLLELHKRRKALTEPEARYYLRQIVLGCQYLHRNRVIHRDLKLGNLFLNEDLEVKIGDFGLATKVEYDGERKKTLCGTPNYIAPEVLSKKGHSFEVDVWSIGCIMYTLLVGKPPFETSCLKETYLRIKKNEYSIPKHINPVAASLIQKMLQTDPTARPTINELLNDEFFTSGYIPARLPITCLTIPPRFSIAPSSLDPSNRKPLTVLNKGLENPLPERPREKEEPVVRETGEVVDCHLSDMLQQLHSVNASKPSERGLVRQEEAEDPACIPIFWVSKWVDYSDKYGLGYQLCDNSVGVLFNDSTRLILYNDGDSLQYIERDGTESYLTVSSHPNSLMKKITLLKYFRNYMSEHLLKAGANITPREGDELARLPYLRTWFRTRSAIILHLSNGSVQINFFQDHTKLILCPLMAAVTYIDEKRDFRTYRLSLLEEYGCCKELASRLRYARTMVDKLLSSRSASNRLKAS

[5] = molecular target: Cyclin-dependent kinase 9 (Homo sapiens) (UniProt P50750); test: Inhibition of human recombinant CDK9 at 15 nM in presence of ATP by radiometric assay relative to control
Sequence of Cyclin-dependent kinase 9 (Homo sapiens) (P50750 whole entry): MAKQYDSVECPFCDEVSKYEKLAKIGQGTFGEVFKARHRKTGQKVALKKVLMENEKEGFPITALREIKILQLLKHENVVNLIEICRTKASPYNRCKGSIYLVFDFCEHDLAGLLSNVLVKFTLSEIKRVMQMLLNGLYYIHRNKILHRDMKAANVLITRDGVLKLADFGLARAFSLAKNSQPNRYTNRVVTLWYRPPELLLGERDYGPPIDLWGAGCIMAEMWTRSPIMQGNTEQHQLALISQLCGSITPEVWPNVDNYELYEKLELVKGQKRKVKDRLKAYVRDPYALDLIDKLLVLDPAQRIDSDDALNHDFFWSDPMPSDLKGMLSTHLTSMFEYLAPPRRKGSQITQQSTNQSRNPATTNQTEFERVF

[6] = molecular target: Platelet-derived growth factor receptor alpha (Homo sapiens) (UniProt P16234); test: Inhibition of human recombinant PDGFRa at 15 nM in presence of ATP by radiometric assay relative to control
Sequence of Platelet-derived growth factor receptor alpha (Homo sapiens) (P16234 whole entry): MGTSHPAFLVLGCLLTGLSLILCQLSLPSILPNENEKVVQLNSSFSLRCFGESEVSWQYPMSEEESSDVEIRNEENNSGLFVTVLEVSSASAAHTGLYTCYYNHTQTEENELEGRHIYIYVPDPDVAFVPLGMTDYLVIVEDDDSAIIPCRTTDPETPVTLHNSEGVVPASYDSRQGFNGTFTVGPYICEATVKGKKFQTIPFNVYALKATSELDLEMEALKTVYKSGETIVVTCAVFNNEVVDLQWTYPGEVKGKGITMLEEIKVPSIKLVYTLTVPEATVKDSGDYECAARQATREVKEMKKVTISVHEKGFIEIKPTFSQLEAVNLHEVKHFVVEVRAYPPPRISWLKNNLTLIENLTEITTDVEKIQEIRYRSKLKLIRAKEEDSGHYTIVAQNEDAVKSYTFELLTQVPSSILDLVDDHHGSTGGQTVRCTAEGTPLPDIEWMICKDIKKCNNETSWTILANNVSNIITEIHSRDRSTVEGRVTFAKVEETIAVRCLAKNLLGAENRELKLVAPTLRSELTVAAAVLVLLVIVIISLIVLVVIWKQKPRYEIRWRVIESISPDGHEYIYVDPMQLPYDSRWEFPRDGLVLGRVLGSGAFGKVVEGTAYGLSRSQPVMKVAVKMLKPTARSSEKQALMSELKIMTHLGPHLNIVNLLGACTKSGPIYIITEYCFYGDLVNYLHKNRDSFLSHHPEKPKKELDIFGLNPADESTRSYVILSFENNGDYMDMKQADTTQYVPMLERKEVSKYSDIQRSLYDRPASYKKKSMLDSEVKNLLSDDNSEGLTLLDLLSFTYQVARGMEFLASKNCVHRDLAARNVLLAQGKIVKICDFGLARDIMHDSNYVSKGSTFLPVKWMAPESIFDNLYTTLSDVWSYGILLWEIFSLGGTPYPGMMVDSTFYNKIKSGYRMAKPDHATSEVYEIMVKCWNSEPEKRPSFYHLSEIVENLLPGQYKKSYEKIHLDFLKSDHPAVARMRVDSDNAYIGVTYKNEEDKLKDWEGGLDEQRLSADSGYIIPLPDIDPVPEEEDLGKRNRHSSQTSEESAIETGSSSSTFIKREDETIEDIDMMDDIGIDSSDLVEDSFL

[7] = molecular target: T2, Mitogen-activated protein kinase 13 (Homo sapiens) (UniProt O15264); test: Inhibition of human recombinant p38delta at 15 nM in presence of ATP by radiometric assay relative to control
T2 sequence (whole entry): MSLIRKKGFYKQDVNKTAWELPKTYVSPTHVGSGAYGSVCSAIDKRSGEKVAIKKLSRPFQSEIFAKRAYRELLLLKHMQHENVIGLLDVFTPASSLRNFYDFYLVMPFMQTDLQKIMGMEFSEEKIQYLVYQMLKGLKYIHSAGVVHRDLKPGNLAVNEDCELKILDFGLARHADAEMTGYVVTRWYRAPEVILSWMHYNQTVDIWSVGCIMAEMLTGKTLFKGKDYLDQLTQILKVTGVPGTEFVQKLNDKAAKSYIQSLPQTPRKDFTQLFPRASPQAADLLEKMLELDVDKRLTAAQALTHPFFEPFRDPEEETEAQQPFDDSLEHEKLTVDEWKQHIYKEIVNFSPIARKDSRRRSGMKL

[8] = molecular target: T3, Serine/threonine-protein kinase 17A (Homo sapiens) (UniProt Q9UEE5); test: Inhibition of human recombinant DRAK1 at 15 nM related to control ULK1
T3 sequence (whole entry): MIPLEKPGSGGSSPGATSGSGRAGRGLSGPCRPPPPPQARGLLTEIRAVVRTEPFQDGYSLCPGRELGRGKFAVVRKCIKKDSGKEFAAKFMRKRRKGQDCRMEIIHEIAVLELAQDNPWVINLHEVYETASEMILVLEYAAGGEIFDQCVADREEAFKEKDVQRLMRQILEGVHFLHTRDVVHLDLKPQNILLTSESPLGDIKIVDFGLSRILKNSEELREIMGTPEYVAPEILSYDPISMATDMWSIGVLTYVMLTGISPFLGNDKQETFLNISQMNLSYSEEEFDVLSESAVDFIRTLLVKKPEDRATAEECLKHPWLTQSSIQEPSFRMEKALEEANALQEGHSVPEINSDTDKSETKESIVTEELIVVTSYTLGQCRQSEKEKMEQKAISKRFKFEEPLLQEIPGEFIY

[9] = molecular target: [Pyruvate dehydrogenase (acetyl-transferring)] kinase isozyme 4, mitochondrial (Homo sapiens) (UniProt Q16654); test: Inhibition of human recombinant PDHK4 at 40 nM related to control ULK1
Sequence of [Pyruvate dehydrogenase (acetyl-transferring)] kinase isozyme 4, mitochondrial (Homo sapiens) (Q16654 whole entry, looked up): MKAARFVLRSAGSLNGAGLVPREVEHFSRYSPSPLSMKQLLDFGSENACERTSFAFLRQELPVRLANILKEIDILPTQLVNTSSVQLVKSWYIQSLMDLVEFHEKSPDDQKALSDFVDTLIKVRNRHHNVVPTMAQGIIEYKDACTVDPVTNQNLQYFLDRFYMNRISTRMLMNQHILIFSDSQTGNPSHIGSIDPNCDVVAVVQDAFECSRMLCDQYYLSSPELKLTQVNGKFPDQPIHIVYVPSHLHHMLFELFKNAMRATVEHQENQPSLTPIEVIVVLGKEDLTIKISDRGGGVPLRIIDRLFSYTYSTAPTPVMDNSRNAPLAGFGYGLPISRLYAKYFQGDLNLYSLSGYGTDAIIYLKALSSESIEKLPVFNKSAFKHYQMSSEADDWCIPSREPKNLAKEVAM

[10] = molecular target: T4, Calcium/calmodulin-dependent protein kinase type IV (Homo sapiens) (UniProt Q16566); test: Inhibition of human recombinant CaMK4 at 40 nM related to control ULK1
T4 sequence (whole entry): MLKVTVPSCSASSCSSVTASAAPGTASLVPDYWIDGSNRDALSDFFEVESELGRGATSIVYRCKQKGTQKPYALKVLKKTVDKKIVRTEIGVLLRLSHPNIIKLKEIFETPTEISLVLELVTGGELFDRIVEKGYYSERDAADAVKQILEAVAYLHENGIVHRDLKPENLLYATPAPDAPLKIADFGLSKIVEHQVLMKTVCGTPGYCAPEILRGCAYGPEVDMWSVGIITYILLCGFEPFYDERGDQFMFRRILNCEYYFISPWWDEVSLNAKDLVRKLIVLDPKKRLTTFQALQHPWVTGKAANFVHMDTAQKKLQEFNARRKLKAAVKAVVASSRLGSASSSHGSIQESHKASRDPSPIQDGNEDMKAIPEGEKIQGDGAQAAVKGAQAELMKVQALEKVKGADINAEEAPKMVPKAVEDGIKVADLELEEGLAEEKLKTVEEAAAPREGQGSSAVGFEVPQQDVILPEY

[11] = molecular target: SRSF protein kinase 3 (Homo sapiens) (UniProt Q9UPE1); test: Inhibition of human recombinant MSSK1 at 40 nM in presence of ATP by radiometric assay relative to control
Sequence of SRSF protein kinase 3 (Homo sapiens) (Q9UPE1 whole entry): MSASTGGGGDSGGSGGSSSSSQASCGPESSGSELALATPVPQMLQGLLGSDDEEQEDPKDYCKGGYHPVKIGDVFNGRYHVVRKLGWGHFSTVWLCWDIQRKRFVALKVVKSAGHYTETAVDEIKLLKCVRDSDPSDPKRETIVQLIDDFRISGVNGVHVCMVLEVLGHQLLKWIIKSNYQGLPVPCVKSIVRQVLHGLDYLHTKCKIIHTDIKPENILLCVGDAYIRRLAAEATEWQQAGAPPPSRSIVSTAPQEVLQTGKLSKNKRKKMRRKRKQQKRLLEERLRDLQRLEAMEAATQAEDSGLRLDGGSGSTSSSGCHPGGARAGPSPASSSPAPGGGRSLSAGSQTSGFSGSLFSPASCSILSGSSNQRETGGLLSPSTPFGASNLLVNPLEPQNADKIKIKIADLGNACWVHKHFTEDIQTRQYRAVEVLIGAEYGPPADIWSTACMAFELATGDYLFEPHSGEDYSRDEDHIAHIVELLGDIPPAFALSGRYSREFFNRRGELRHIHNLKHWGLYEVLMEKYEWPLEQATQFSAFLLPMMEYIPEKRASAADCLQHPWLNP

SMILES: CNC(=O)c1ccccc1Oc1nc(Nc2cc(OC)c(OC)c(OC)c2)ncc1Br
- fold change (FC) [1]: 0.86
- fold change (FC) [2]: 0
- fold change (FC) [3]: 0.26

SMILES: CC(C)[C@H](NC(=O)c1cc(-c2cnn3cc(-c4ccc(OCCN5CCCCC5)cc4)cnc23)cs1)C(F)(F)F
- inhibition [4]: 1%
- inhibition [5]: 0%
- inhibition [6]: 5%
- inhibition [7]: 6%
- fold change (FC) [8]: 0.81

SMILES: O=C(N[C@@H](C1CC1)C(F)(F)F)c1cc(-c2cnn3cc(-c4ccc(F)cc4)cnc23)cs1
- fold change (FC) [9]: 0
- fold change (FC) [10]: 0
- inhibition [11]: 13%
